“Also recorded” adds a separate entry of the source. Like-named read-outs stand apart in the source and are kept apart here.
Columns and labels:
[1] = tested on: human granulocytes co-cultured with autologous T cells; experiment: T cell/granulocyte co-culture assay (healthy donor); type: cell-based; settings: for IC50: Homo sapiens, T-cell, granulocytes to T cells 0.25 to 1
Method: T cells or NK cells were purified from healthy donor human blood or from murine splenocytes using a negative selection kit for the appropriate cell type and species from Stemcell Technologies. Isolated T cells or NK cells were loaded with carboxyfluorescein succinimidyl ester (CFSE, Thermo Fisher) and stimulated for 72–96 h in complete growth medium containing a minimum of either 50 μM L-arginine (NK cells) or 100 μM L-arginine (T cells). For T cell stimulation, a solution of 10 μg/mL anti-CD3 (human clones UCHT1 or OKT3; murine clone 145-2C11) was used to coat the wells of a 96-well plate and then T cells were stimulated on immobilized anti-CD3 in the presence of 2 μg/mL soluble anti-CD28 (human clone CD28.2; murine clone 37.51). NK cells were stimulated with recombinant IL-2. Proliferation was quantified by analyzing CFSE dilution by flow cytometry (Guava flow cytometer, Millipore, Billerica, MA or Attune NxT flow cytometer, ThermoFisher).
Freshly isolated granulocytes were incubated for 48 h at 37 °C, during which time they spontaneously activate as determined by increased surface expression of CD66b and scatter properties. T cells isolated from the same healthy donor using a pan-T cell isolation kit (Stemcell Technologies) were loaded with CFSE and plated with immobilized anti-CD3 and soluble anti-CD28 in the presence of the aged granulocytes. The cells were co-cultured at several ratios of granulocytes to T cells as indicated in the figure or at a fixed ratio of 4 T cells to 1 granulocyte. […] Granulocytic MDSC (G-MDSC) or granulocytes from cancer patients were isolated from whole blood purchased from Conversant Biologics. G-MDSCs were purified from the PBMC layer of a Ficoll gradient by positive selection for CD66b^+ cells. Granulocytes were purified from the RBC layer of a Ficoll gradient using Hetasep (Stemcell Technologies). […] Cytokines were quantified in the media from T cell co-culture assays using the Cytometric Bead Array kit according to the manufacturer’s instructions (BD Biosciences).

[2] = Tolerability in mice
[3] = tested on: B16 tumors; experiment: B16 syngeneic tumor model; type: in vivo, mouse
[4] = tested on: LLC tumors; experiment: LLC tumors in SCID mice; type: in vivo, mouse; settings: 100 mg/kg twice daily
[5] = tested on: 4T1 tumors; experiment: 4T1 orthotopic tumor model; type: in vivo, mouse
[6] = tested on: LLC tumors; experiment: LLC tumors in conditional Arg1 deleted mice; type: in vivo, mouse; settings: 100 mg/kg every 12 h for 14 days, oral
Method: Arg1 floxed mice were crossed to the Tie2-Cre deleter strain (The Jackson Laboratory) as previously described. Experimental mice were generated from crossing Arg1 ^Flox/Flox; Tie2-Cre ^+ males with Arg1 ^Flox/Flox; Tie2-Cre ^− females, with Cre negative littermates serving as wild-type controls. […] LLC cells (10^6 per mouse) were injected s.c. in the flank region. […] Mice were euthanized, and tumors excised and weights recorded. Myeloid deletion of Arg1 was confirmed via western blotting of IL-4-stimulated bone marrow-derived macrophages for all animals.

[7] = tested on: granulocytic MDSCs from a lung cancer patient / healthy donor T cells; experiment: T cell proliferation in G-MDSC-conditioned media (lung cancer patient); type: cell-based, human
Method: Freshly isolated granulocytes were incubated for 48 h at 37 °C, during which time they spontaneously activate as determined by increased surface expression of CD66b and scatter properties. T cells isolated from the same healthy donor using a pan-T cell isolation kit (Stemcell Technologies) were loaded with CFSE and plated with immobilized anti-CD3 and soluble anti-CD28 in the presence of the aged granulocytes. The cells were co-cultured at several ratios of granulocytes to T cells as indicated in the figure or at a fixed ratio of 4 T cells to 1 granulocyte. Co-cultures were incubated for 3–4 days, at which time the medium was analyzed for L-arginine and L-ornithine by mass spectrometry and T cell proliferation was determined by flow cytometry. Granulocytic MDSC (G-MDSC) or granulocytes from cancer patients were isolated from whole blood purchased from Conversant Biologics. G-MDSCs were purified from the PBMC layer of a Ficoll gradient by positive selection for CD66b^+ cells. Granulocytes were purified from the RBC layer of a Ficoll gradient using Hetasep (Stemcell Technologies). Granulocytes and G-MDSCs were characterized by flow cytometry for CD66b expression. […] Cytokines were quantified in the media from T cell co-culture assays using the Cytometric Bead Array kit according to the manufacturer’s instructions (BD Biosciences).

[8] = tested on: intracellular arginase in HepG2 cell line; experiment: Native arginase activity in intact HepG2 cells; type: cell-based, human; settings: 10 mM L-arginine; urea in media after 24 h; N = 3; mean (±SD)
Method: (§1) Intracellular arginase activity was determined for the arginase-expressing HepG2 and K-562 cell lines as follows. […] The medium was harvested after 24 h and urea generated was determined with the QuantiChrom Urea Assay Kit. Wells containing media without cells were used as background controls.

[9] = tested on: intracellular arginase in K562 cell line; experiment: Native arginase activity in intact K-562 cells; type: cell-based, human; settings: 10 mM L-arginine; urea in media after 24 h; N = 2; mean (±SD)
Method: as §1

[10] = Pharmacokinetic and pharmacodynamic study in LLC tumor-bearing mice; type: in vivo, mouse; settings: oral dosing, pharmacodynamic effect
[11] = tested on: LLC tumors; experiment: LLC syngeneic tumor model; type: in vivo, mouse
[12] = tested on: CT26 tumors; experiment: CT26 syngeneic tumor model
Method: Female wild-type C57BL/6 and Balb/c mice (5–6 weeks old) were purchased from Charles River Laboratories (Hollister, CA). Severe combined immune deficient (SCID, B6.CB17-PrkdcSCID/SzJ) and Pmel-1 TCR transgenic (B6.Cg-Thy1a/Cy Tg(TcraTcrb)8Rest/J) mice (5–6 weeks old) were purchased from The Jackson Laboratory (Bar Harbor, ME). All mice were housed and treated in accordance with Institutional Animal Care and Use Committee guidelines. For the 4T1 tumor model, 10^5 cells were injected orthotopically into the mammary fat pad; for all other tumor models, 10^6 cells were injected subcutaneously (s.c.) in the right flank. […] Control groups received vehicle (water) twice daily by gavage. Tumor volume measured by digital caliper (length × width × width/2) and body weight were recorded three times per week. Animals were euthanized when tumors necrotized or volumes reached 2000 mm^3. For the CT26 model, anti-PD-L1 antibody (5 mg/kg, clone 10F.9G2, BioXCell, West Lebanon, NH) was injected intraperitoneally (i.p.) on days 5, 7, 9, 11, 13, and 15. […] Gemcitabine (Selleckchem, Houston, TX) was dosed 50 mg/kg i.p. on days 10 and 16 for the CT26 model, 60 mg/kg i.p. on days 6 and 10 for the LLC model, or 30 mg/kg i.p. on day 5 for the 4T1 model [17, 18]. […] For CD8^+ cell depletion, mice were injected i.p. with anti-CD8 antibody (25 mg/kg, clone 2.43, BioXCell) on days −1, 0, + 5, and +10. For NK cell depletion, mice were injected i.p. with anti-NK1.1 antibody (25 mg/kg, clone PK136, BioXCell) in the LLC and B16 models or with anti-Asialo GM1 sera (20 μL, Wako Chemicals, Richmond, VA) in the CT26 model, per the same schedule as anti-CD8.
Excised tumors were placed on ice in RPMI-1640 medium containing 5% FBS, minced with a razor blade, and dissociated in RPMI-1640 supplemented with mouse tumor dissociation enzymes (Miltenyi Biotec, Bergisch Gladbach, Germany) on a GentleMACS Octo Dissociator With Heat (Miltenyi Biotec) according to the manufacturer’s instructions. Dissociated tumors were strained through 70 μm nylon mesh, washed with cold PBS containing 2% FBS, blocked with anti-CD16/CD32 (Fc block antibody, eBioscience), and stained for cell surface antigens. For B16 and 4T1 tumors, washed dissociated tumor cells were incubated with Dead Cell Removal MicroBeads (Miltenyi Biotec) and applied to a magnetic column prior to staining. For intracellular staining, cells were fixed and permeabilized using buffers purchased from R&D Systems or eBioscience for cytoplasmic or nuclear antigens, respectively. All tumor flow experiments were acquired on an Attune NxT flow cytometer and analyzed with FlowJo software version 10 (Ashland, OR), using fluorescence-minus-one controls for gating and single-stained OneComp eBeads (eBioscience) to set compensation matrices.

[13] = molecular target: T1, Recombinant human Arg2 (Homo sapiens, UniProt P78540); experiment: Recombinant arginase activity assay (Arg2); type: biochemical; settings: 20 mM L-arginine; N = 2; mean (±SD)
T1 construct: Recombinant human arginase 2 (Arg2) comprising amino acids 23–254 was purchased from US Biological; purchased US Biological (Salem, MA)
T1 sequence (P78540 23-354): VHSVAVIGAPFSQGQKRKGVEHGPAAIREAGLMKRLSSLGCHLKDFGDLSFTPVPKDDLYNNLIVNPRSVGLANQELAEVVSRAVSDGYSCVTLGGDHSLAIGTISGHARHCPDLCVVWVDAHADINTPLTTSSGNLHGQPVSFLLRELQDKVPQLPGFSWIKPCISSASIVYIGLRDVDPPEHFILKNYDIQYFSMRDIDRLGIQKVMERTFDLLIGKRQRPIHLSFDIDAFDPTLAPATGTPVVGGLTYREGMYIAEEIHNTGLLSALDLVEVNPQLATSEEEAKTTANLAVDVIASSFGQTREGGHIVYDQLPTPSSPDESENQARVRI
Method: Recombinant human arginase 2 (Arg2) comprising amino acids 23–254 was purchased from US Biological (Salem, MA). […] Activity was determined by a spectrophotometric assay using the QuantiChrom Urea Assay Kit (BioAssay Systems, Hayward, CA) or by quantification of the generation of ^13C(5)-L-ornithine from ^13C(6)-L-arginine using a SCIEX API4000 mass spectrometer (Applied Biosystems, Foster City, CA). Urea produced or ^13C(5)-L-ornithine peak areas were plotted and fitted to a four-parameter equation using GraphPad Prism software (San Diego, CA) to determine IC50 values.

[14] = tested on: granulocytes from a head and neck cancer patient / healthy donor T cells; experiment: T cell proliferation in granulocyte-conditioned media (head and neck cancer patient); type: cell-based, human
Method: Freshly isolated granulocytes were incubated for 48 h at 37 °C, during which time they spontaneously activate as determined by increased surface expression of CD66b and scatter properties. T cells isolated from the same healthy donor using a pan-T cell isolation kit (Stemcell Technologies) were loaded with CFSE and plated with immobilized anti-CD3 and soluble anti-CD28 in the presence of the aged granulocytes. The cells were co-cultured at several ratios of granulocytes to T cells as indicated in the figure or at a fixed ratio of 4 T cells to 1 granulocyte. Co-cultures were incubated for 3–4 days, at which time the medium was analyzed for L-arginine and L-ornithine by mass spectrometry and T cell proliferation was determined by flow cytometry. Granulocytic MDSC (G-MDSC) or granulocytes from cancer patients were isolated from whole blood purchased from Conversant Biologics. G-MDSCs were purified from the PBMC layer of a Ficoll gradient by positive selection for CD66b^+ cells. Granulocytes were purified from the RBC layer of a Ficoll gradient using Hetasep (Stemcell Technologies). Granulocytes and G-MDSCs were characterized by flow cytometry for CD66b expression. Freshly isolated G-MDSC or granulocytes were incubated in co-culture medium containing 100 μM L-arginine for 48 h, at which time the cells were removed and the G-MDSC- or granulocyte-conditioned media were used for incubating healthy donor CFSE-loaded T cells on immobilized anti-CD3/soluble anti-CD28 for 3–4 days. Cytokines were quantified in the media from T cell co-culture assays using the Cytometric Bead Array kit according to the manufacturer’s instructions (BD Biosciences).

[15] = parameters: method as in PMID 20219858; settings: nor-NOHA injected over a period of 10 weeks; cited from earlier work
[16] = tested on: tumor growth; parameters: method as in PMID 15313928; settings: cited from earlier work
[17] = 100 mg/kg twice daily for 23 days, CT26-inoculated mice
[18] = 100 mg/kg twice daily, depleting antibodies
[19] = flow cytometry, study day 10, 100 mg/kg BID
[20] = flow cytometry, study day 14, 100 mg/kg BID

Structure (SMILES): C[C@H](N)C(=O)N1C[C@H](CCCB(O)O)[C@](N)(C(=O)O)C1 [CB-1158]
- IC50 ([1]; Fig. 1d left, read-out: IC50, consumption of L-arginine from the media by granulocytes): 411 nM
- IC50 ([1]; Fig. 1d right, read-out: IC50, granulocyte-mediated suppression of T cell proliferation): 204 nM
- T cell proliferation restored, of the proliferation observed for T cells without granulocytes ([1]; co-culture with activated granulocytes): 90%
- clinical observations and body weight [2, 17]: no significant clinical observations or impact on body weight
- tolerability [2, 17]: well-tolerated
- tolerability ([2]; twice-daily oral dosing for at least 40 days): well-tolerated
- tumor growth, single agent ([3]; 100 mg/kg twice daily, oral): significantly inhibited
- efficacy after depletion of either CD8+ cells or NK cells [3, 18]: blocked the efficacy
- tumor-infiltrating activated CD8+ CD25+ cytotoxic T cells vs vehicle ([3]; flow cytometry, study day 9, 100 mg/kg BID): increase
- efficacy in the SCID background [4]: abrogated
- tumor growth, single agent ([5]; 100 mg/kg twice daily, oral): significantly inhibited; also recorded: modest effect
- CD3+ T cells in the tumor vs vehicle [5, 19]: increase
- NK cells in the tumor vs vehicle [5, 19]: increase
- myeloid cells in the tumor vs vehicle [5, 19]: decrease
- tumor growth in Arg flox/flox; Tie2-Cre+ (ARG1ΔM) mice [6]: no further reduction in tumor growth
- arginine depletion from the media [7]: blocked
- T cell proliferation restored, of control levels ([7]; MDSCs to T cells 1 to 1): 99%
- IC50 [8]: 32000 nM
- IC50 [9]: 139000 nM
- amount of L-arginine in plasma and tumors [10]: raised
- tumor growth, single agent ([11]; 100 mg/kg twice daily, oral): significantly inhibited
- effect of depletion of CD8+ cells on efficacy ([11]; 100 mg/kg twice daily, study day 13): smaller effect
- efficacy after depletion of NK cells ([11]; 100 mg/kg twice daily, study day 14): loss of efficacy
- inflammatory cytokines in tumors vs vehicle ([11]; Luminex, 200 mg/kg twice daily for 14 days): increases
- transcripts of interferon-responsive genes in tumors vs vehicle ([11]; Nanostring, 100 mg/kg twice daily for 13 days): increases
- CD8+ T cells in the tumor vs vehicle [11, 20]: increase
- CD68+ macrophages in the tumor vs vehicle [11, 20]: decrease
- tumor growth, single agent ([12]; 100 mg/kg twice daily, oral): significantly inhibited
- efficacy after depletion of either CD8+ cells or NK cells [12, 18]: blocked the efficacy
- tumor-infiltrating activated CD8+ CD25+ cytotoxic T cells vs vehicle [12, 20]: increase
- IC50 [13]: 296 nM
- arginine depletion from the media ([14]; granulocyte-conditioned media): blocked
- T cell proliferation restored, of control levels ([14]; granulocyte-conditioned media, granulocytes to T cells 0.5 to 1): 79%
- secretion of interferon-γ and granzyme-B into the media ([14]; media from Fig. 1f, Cytometric Bead Array): restored

Structure (SMILES): Nc1ccn([C@@H]2O[C@H](CO)[C@@H](O)C2(F)F)c(=O)n1 [Gemcitabine, gemcitabine, reference compound]
- CD11b+ myeloid cells in the tumors ([12]; flow cytometry, study day 14): significant decrease

Structure (SMILES): N=C(NO)NCC[C@H](N)C(=O)O [nor-NOHA]
- tolerability [15]: well-tolerated
- tumor growth ([16]; injection of nor-NOHA): reduced tumor growth
- tolerability ([16]; multi-day studies in mice): well-tolerated
